{
  "source": "patent US20040209238A1",
  "about": "“Cell division-visualized cell and method of production of the same, method of detection of fluorescence, method of evaluation of influence upon cell division, and method of screenig” (NAGASE & CO., LTD., priority 2002, published 2004)",
  "test_system": "human MDA435 cell (transformed with aurora A-GFP, histone H3-CFP, importin α-DsRed)",
  "assay": "real-time fluorescence observation of cell division in the cell division-visualized cell after addition of an agent",
  "format": "cell-based",
  "settings": "vinblastine added to the culture fluid",
  "protocol": "As a cell to which the aforementioned plasmid DNA is introduced, human MDA435 cell (Vig et al., 1996; Sugimoto et al., 2000, 2001) was used. The human MDA435 cell was cultured in D-MEM medium containing 10% FCS (manufactured by Nissui Pharmaceutical Co., Ltd.) at 37° C. under 5% carbon dioxide in the air. Cells in the logarithmic growth phase were washed with 4 ml of 1×PBS (−), and the cells were detached by adding 1 ml of trypsin. After terminating the action of trypsin by adding 4 ml of D-MEM medium, the cell suspension was transferred into a centrifuge tube, and a part thereof was removed to subject to the measurement of cell number using a hematometer. The remaining part was centrifuged at 1000 rpm for 10 minutes, and thus recovered cells were washed by suspending in 12 ml of 1×PBS (−). This operation was repeated twice, and the cells were suspended in 1×K-PBS to give the cell density of 1.2×10^7 cells/ml.\nThe transformed cells described above were cultured in a wet chamber with controlled carbon dioxide concentration and temperature by a thermostat and a control timer of carbon dioxide introduction (Japan, manufactured by Kokensya Engineering), using a 35 mm dish (with a cover glass attached on the bottom: manufactured by ASAHI TECHNO GLASS CORPORATION) on the stage of a inverted fluorescence microscope “Eclipse TE300” (manufactured by Nikon) equipped with a objective lens “PlanApo 60×”. Then, a highly sensitive CCD camera ORCA-ER (manufactured by Hamamatsu Photonics K.K.), and an excitation/absorption filter wheel equipped with a filter set for CFP/YFP/RFP for the observation (No. 86006, manufactured by Chroma Technology Corp.) and aZ-axis motor, and a controller “BioPoint MAC5000” (manufactured by Ludl Electronic Products Ltd.) which is a control equipment of the same were used, with the use of a computer software (LuminaVision version 1.40, manufactured by Mitani Co., Ltd.) for controlling these accessories. […]",
  "note": "Entries after “also recorded” stand apart in the source; their conditions may differ.",
  "data": [
    {"smiles": "CC[C@]1(O)C[C@@H]2CN(CCc3c([nH]c4ccccc34)[C@@](C(=O)OC)(c3cc4c(cc3OC)N(C)[C@H]3[C@@](O)(C(=O)OC)[C@H](OC(C)=O)[C@]5(CC)C=CCN6CC[C@]43[C@@H]65)C2)C1", "note": "[vinblastine]", "values": [
      {"measurement": "alignment of the chromosomes on the equatorial plane (transition to the metaphase)", "setting": "cyan fluorescence (histone H3), up to 130 minutes following initiation of the observation, FIG. 2 and FIG. 3", "result": "not found even after lapse of 130 minutes; also recorded: not observed even after lapse of 130 minutes"},
      {"measurement": "movement of the centrosomes toward the poles and formation of the spindle", "setting": "green fluorescence (aurora A), FIG. 2", "result": "inhibition was made on the movement of the centrosomes toward the poles"},
      {"measurement": "progress of cell division, transition from the prophase to the prometaphase", "setting": "observed at intervals of 2 minutes, FIG. 2 and FIG. 3", "result": "inhibition of the transition from the prophase to the prometaphase"}
    ]}
  ]
}
